Values of other authors in patent US8372995B2, “Crystalline solid forms of tigecycline and methods of preparing same” (priority 2005, dated 2013).

Assays:
[1] = tested on: methicillin-resistant Staphylococcus aureus
[2] = tested on: penicillin-resistant Streptococcus pneumoniae
[3] = tested on: vancomycin-resistant enterococci
[4] = tested on: organisms carrying either of the two major forms of tetracycline resistance: efflux and ribosomal protection
[5] = oral

Structure (SMILES): CN(C)c1cc(NC(=O)CNC(C)(C)C)c(O)c2c1C[C@H]1C[C@H]3[C@H](N(C)C)C(O)=C(C(N)=O)C(=O)[C@@]3(O)C(O)=C1C2=O [Tigecycline]
- activity against methicillin-resistant Staphylococcus aureus [1]: active
- activity against penicillin-resistant Streptococcus pneumoniae [2]: active
- activity against vancomycin-resistant enterococci [3]: active
- activity against organisms carrying tetracycline resistance (efflux, ribosomal protection) [4]: active
- bioavailability when given orally [5]: generally poor
